From patent publication US9012651B2, “TRPV3 modulators” (AbbVie Inc., priority 2011, dated 2015) come the findings set out here.

Structures are written as SMILES. Where only a bound is given, the exact number is not on record here.

human TRPV3 receptors, sequence (Q8NET8 whole entry): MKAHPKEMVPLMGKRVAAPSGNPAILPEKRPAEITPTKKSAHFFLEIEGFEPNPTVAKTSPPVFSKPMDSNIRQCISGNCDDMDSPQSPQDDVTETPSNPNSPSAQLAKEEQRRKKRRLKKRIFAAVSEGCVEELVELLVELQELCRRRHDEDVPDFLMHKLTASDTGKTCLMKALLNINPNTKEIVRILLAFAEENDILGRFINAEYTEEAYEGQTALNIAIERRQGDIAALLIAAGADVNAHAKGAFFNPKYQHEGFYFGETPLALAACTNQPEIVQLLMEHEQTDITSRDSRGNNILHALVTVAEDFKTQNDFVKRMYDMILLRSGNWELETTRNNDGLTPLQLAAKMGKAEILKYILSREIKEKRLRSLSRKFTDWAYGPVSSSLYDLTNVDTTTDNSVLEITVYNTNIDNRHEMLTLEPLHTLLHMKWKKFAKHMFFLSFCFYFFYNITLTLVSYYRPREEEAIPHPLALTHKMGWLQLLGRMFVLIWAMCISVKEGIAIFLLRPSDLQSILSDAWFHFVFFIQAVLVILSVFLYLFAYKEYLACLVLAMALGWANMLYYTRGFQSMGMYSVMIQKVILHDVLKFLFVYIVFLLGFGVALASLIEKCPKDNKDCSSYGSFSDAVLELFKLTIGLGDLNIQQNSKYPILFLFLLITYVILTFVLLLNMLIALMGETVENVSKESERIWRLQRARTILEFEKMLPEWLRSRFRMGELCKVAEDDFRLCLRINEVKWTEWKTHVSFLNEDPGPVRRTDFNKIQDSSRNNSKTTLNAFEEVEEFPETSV

The target of this test is human TRPV3 receptors (Homo sapiens (Human), UniProt Q8NET8). Description: Calcium flux assay (FLIPR TETRA), inhibition of the 2-APB response. In kind it is cell-based. The note with it: recombinant HEK293 cells stably expressing TRPV3, Calcium-4 dye, 2-APB at its EC80. In outline:
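HEK293 cells stably expressing human and mouse TRPV3, plated the day before and dye-loaded 90-120 min in the dark, read on FLIPR Tetra. Peak fluorescence increase over baseline was expressed as percent of the maximal 2-APB response without compound.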
As to `OC1(CNCc2ccnc(-c3ccc(C(F)(F)F)cc3)n2)CCCCC1` [Example 178, 1-{[({2-[4-(trifluoromethyl)phenyl]pyrimidin-4-yl}methyl)amino]methyl}cyclohexanol], the IC50 is over 20 µM.
`OC(CNCc1ccnc(-c2ccc(C(F)(F)F)cc2)n1)C(F)(F)F` (centres unmarked) [Example 179, 1,1,1-trifluoro-3-[({2-[4-(trifluoromethyl)phenyl]pyrimidin-4-yl}methyl)amino]propan-2-ol]: the IC50 was over 20 µM.
As for `C[C@H](O)CNCc1ccnc(-c2ccc(C(F)(F)F)cc2)n1` [Example 180, (2S)-1-[({2-[4-(trifluoromethyl)phenyl]pyrimidin-4-yl}methyl)amino]propan-2-ol], the figure is over 20 µM; as for `CCC(O)CNCc1ccnc(-c2ccc(C(F)(F)F)cc2)n1` (centres unmarked) [Example 181, 1-[({2-[4-(trifluoromethyl)phenyl]pyrimidin-4-yl}methyl)amino]butan-2-ol], over 20 µM; as for `OC(CNCc1ccnc(-c2ccc(C(F)(F)F)cc2)n1)c1ccccc1` (centres unmarked) [Example 182, 1-phenyl-2-[({2-[4-(trifluoromethyl)phenyl]pyrimidin-4-yl}methyl)amino]ethanol], over 20 µM.
As for `C[C@@H](O)CNCc1ccnc(-c2ccc(C(F)(F)F)cc2)n1` [Example 183, (2R)-1-[({2-[4-(trifluoromethyl)phenyl]pyrimidin-4-yl}methyl)amino]propan-2-ol], the figure is over 20 µM.
As for `CC(C)[C@H](CO)NCc1ccnc(-c2ccc(C(F)(F)F)nc2)n1` [Example 184, (2R)-3-methyl-2-[({2-[6-(trifluoromethyl)pyridin-3-yl]pyrimidin-4-yl}methyl)amino]butan-1-ol], the figure is 2.94 µM.
Turning to `OCC1(NCc2ccnc(-c3ccc(C(F)(F)F)nc3)n2)CCCCC1` [Example 185, {1-[({2-[6-(trifluoromethyl)pyridin-3-yl]pyrimidin-4-yl}methyl)amino]cyclohexyl}methanol], the IC50 was over 20 µM.
As for `CC[C@H](CO)NCc1ccnc(-c2ccc(C(F)(F)F)nc2)n1` [Example 186, (2R)-2-[({2-[6-(trifluoromethyl)pyridin-3-yl]pyrimidin-4-yl}methyl)amino]butan-1-ol], the figure is over 20 µM.
As for `COCC(CO)NCc1ccnc(-c2ccc(C(F)(F)F)nc2)n1` (centres unmarked) [Example 187, 3-methoxy-2-[({2-[6-(trifluoromethyl)pyridin-3-yl]pyrimidin-4-yl}methyl)amino]propan-1-ol], the figure is over 20 µM; as for `OC[C@H](NCc1ccnc(-c2ccc(C(F)(F)F)nc2)n1)C1CC1` [Example 188, (2R)-2-cyclopropyl-2-[({2-[6-(trifluoromethyl)pyridin-3-yl]pyrimidin-4-yl}methyl)amino]ethanol], over 20 µM.
Take `CC(C)(O)[C@H](CO)NCc1ccnc(-c2ccc(C(F)(F)F)nc2)n1` [Example 189, (2S)-3-methyl-2-[({2-[6-(trifluoromethyl)pyridin-3-yl]pyrimidin-4-yl}methyl)amino]butane-1,3-diol]: the IC50 was over 20 µM.
Consider `CC(O)C(C)NCc1ccnc(-c2ccc(C(F)(F)F)nc2)n1` (centres unmarked) [Example 190, 3-[({2-[6-(trifluoromethyl)pyridin-3-yl]pyrimidin-4-yl}methyl)amino]butan-2-ol], for which the IC50 worked out at 8.15 µM.
As for `C[C@@H](O)[C@@H](CO)NCc1ccnc(-c2ccc(C(F)(F)F)nc2)n1` [Example 191, (2R,3R)-2-[({2-[6-(trifluoromethyl)pyridin-3-yl]pyrimidin-4-yl}methyl)amino]butane-1,3-diol], the figure is over 20 µM; as for `CC(C)[C@H](CO)NCc1ccnc(-c2ccc(C(F)(F)F)cn2)n1` [Example 192, (2R)-3-methyl-2-[({2-[5-(trifluoromethyl)pyridin-2-yl]pyrimidin-4-yl}methyl)amino]butan-1-ol], over 20 µM; as for `CC[C@H](CO)NCc1ccnc(-c2ccc(C(F)(F)F)cn2)n1` [Example 194, (2R)-2-[({2-[5-(trifluoromethyl)pyridin-2-yl]pyrimidin-4-yl}methyl)amino]butan-1-ol], over 20 µM.
As for `COCC(CO)NCc1ccnc(-c2ccc(C(F)(F)F)cn2)n1` (centres unmarked) [Example 195, 3-methoxy-2-[({2-[5-(trifluoromethyl)pyridin-2-yl]pyrimidin-4-yl}methyl)amino]propan-1-ol], the figure is over 20 µM.
As for `OC[C@H](NCc1ccnc(-c2ccc(C(F)(F)F)cn2)n1)C1CC1` [Example 196, (2R)-2-cyclopropyl-2-[({2-[5-(trifluoromethyl)pyridin-2-yl]pyrimidin-4-yl}methyl)amino]ethanol], the figure is over 20 µM; as for `CC(C)(O)[C@H](CO)NCc1ccnc(-c2ccc(C(F)(F)F)cn2)n1` [Example 197, (2S)-3-methyl-2-[({2-[5-(trifluoromethyl)pyridin-2-yl]pyrimidin-4-yl}methyl)amino]butane-1.3-diol], over 20 µM.
Consider `C[C@@H](O)[C@@H](CO)NCc1ccnc(-c2ccc(C(F)(F)F)cn2)n1` [Example 198, (2R,3R)-2-[({2-[5-(trifluoromethyl)pyridin-2-yl]pyrimidin-4-yl}methyl)amino]butane-1,3-diol], for which the concentration for half-maximal inhibition (IC50) is over 20 µM.
As for `CC(C)[C@H](CO)NCc1nc(C2CC3CCC2C3)ccc1F` (stereo partly drawn) [Example 199, (2R)-2-({[6-(bicyclo[2.2.1]hept-2-yl)-3-fluoropyridin-2-yl]methyl}amino)-3-methylbutan-1-ol], the figure is 1.59 µM; as for `CC1CCC(c2ccc(F)c(CN[C@@H](CO)C(C)C)n2)CC1` (stereo partly drawn) [Example 200, (2R)-2-({[3-fluoro-6-(4-methylcyclohexyl)pyridin-2-yl]methyl}amino)-3-methylbutan-1-ol], 1.03 µM; as for `CCC1CCC(c2ccc(F)c(CN[C@@H](CO)C(C)C)n2)CC1` (stereo partly drawn) [Example 201, (2R)-2-({[6-(4-ethylcyclohexyl)-3-fluoropyridin-2-yl]methyl}amino)-3-methylbutan-1-ol], 0.77 µM.
As for `CC(C)[C@H](CO)NCc1nc(C2CCC(C)(C)CC2)ccc1F` [Example 202, (2R)-2-({[6-(4,4-dimethylcyclohexyl)-3-fluoropyridin-2-yl]methyl}amino)-3-methylbutan-1-ol], the figure is 0.79 µM; as for `CC(C)[C@H](CO)NCc1nc(C2CCC(F)(F)CC2)ccc1F` [Example 203, (2R)-2-({[6-(4,4-difluorocyclohexyl)-3-fluoropyridin-2-yl]methyl}amino)-3-methylbutan-1-ol], 0.53 µM; as for `CC(C)[C@H](CO)NCc1nc(C2CCOCC2)ccc1F` [Example 204, (2R)-2-({[3-fluoro-6-(tetrahydro-2H-pyran-4-yl)pyridin-2-yl]methyl}amino)-3-methylbutan-1-ol], over 20 µM.
As for `CC(C)[C@H](CO)NCc1nc(C2CCN(C(=O)OC(C)(C)C)CC2)ccc1F` [Example 205, tert-butyl 4-[5-fluoro-6-({[(2R)-1-hydroxy-3-methylbutan-2-yl]amino}methyl)pyridin-2-yl]piperidine-1-carboxylate], the figure is 2.46 µM; as for `CC(C)[C@H](CO)NCc1nc(C2CCCCCC2)ccc1F` [Example 206], 1.23 µM.
Consider `CC(C)[C@H](CO)NCc1ccnc(-c2ccc(S(=O)(=O)C(F)(F)F)cc2)n1` [Example 207, (2R)-3-methyl-2-{[(2-{4-[(trifluoromethyl)sulfonyl]phenyl}pyrimidin-4-yl)methyl]amino}butan-1-ol], for which the half-maximal inhibitory concentration (IC50) came to 0.68 µM.
As for `O=S(=O)(c1ccc(-c2nccc(CNC3(CO)CCCCC3)n2)cc1)C(F)(F)F` [Example 208, (1-{[(2-{4-[(trifluoromethyl)sulfonyl]phenyl}pyrimidin-4-yl)methyl]amino}cyclohexyl)methanol], the figure is 13.5 µM; as for `CC[C@H](CO)NCc1ccnc(-c2ccc(S(=O)(=O)C(F)(F)F)cc2)n1` [Example 209, (2R)-2-{[(2-{4-[(trifluoromethyl)sulfonyl]phenyl}pyrimidin-4-yl)methyl]amino}butan-1-ol], 1.47 µM.
As to `COCC(CO)NCc1ccnc(-c2ccc(S(=O)(=O)C(F)(F)F)cc2)n1` (centres unmarked) [Example 210, 3-methoxy-2-{[(2-{4-[(trifluoromethyl)sulfonyl]phenyl}pyrimidin-4-yl)methyl]amino}propan-1-ol], the concentration for half-maximal inhibition (IC50) worked out at 18.5 µM.
For `CC(C)(O)[C@H](CO)NCc1ccnc(-c2ccc(S(=O)(=O)C(F)(F)F)cc2)n1` [Example 211, (2S)-3-methyl-2-{[(2-{4-[(trifluoromethyl)sulfonyl]phenyl}pyrimidin-4-yl)methyl]amino}butane-1,3-diol], the IC50 is over 20 µM.
As for `C[C@@H](O)[C@@H](CO)NCc1ccnc(-c2ccc(S(=O)(=O)C(F)(F)F)cc2)n1` [Example 212, (2R,3R)-2-{[(2-{4-[(trifluoromethyl)sulfonyl]phenyl}pyrimidin-4-yl)methyl]amino}butane-1,3-diol], the figure is 2.53 µM.
As for `CC(C)[C@H](CO)NCc1nc(C2CCC(C(C)(C)C)CC2)ccc1F` (stereo partly drawn) [Example 213, (2R)-2-({[6-(4-tert-butylcyclohexyl)-3-fluoropyridin-2-yl]methyl}amino)-3-methylbutan-1-ol], the figure is 0.79 µM; as for `CC(C)[C@H](CO)NCc1nc(C2CCC3(CC2)OCCO3)ccc1F` [Example 214, (2R)-2-({[6-(1,4-dioxaspiro[4.5]dec-8-yl)-3-fluoropyridin-2-yl]methyl}amino)-3-methylbutan-1-ol], 8.28 µM.
As for `CC(C)[C@H](CO)NCc1nc(C2CCCC3(C2)OCCO3)ccc1F` (stereo partly drawn) [Example 215, (2R)-2-({[6-(1,4-dioxaspiro[4.5]dec-7-yl)-3-fluoropyridin-2-yl]methyl}amino)-3-methylbutan-1-ol], the figure is 5.67 µM; as for `CC(C)[C@H](CO)NCc1nc(C2CCC(C(F)(F)F)CC2)ccc1F` (stereo partly drawn) [Example 216, (2R)-2-[({3-fluoro-6-[4-(trifluoromethyl)cyclohexyl]pyridin-2-yl}methyl)amino]-3-methylbutan-1-ol], 0.31 µM.

What is called IC50 is the midpoint of a concentration-inhibition curve.
